We go through 21 compounds from PubChem BioAssay (NCI).

Holding throughout (assay): NCI-60 cell line screen, 48 h
The test system of experiment [1] is MDA-N.
Experiment [2] deals with DLD-1 colon.
The test system of experiment [3] is DMS 114 small cell lung.
Experiment [4] concerns HOP-18 NSCLC.
The test system of experiment [5] is M19-MEL melanoma.
In experiment [6] the test system is DMS 273 small cell lung.
The subject of experiment [7] is SNB-78 CNS.
For experiment [8], the system named is XF 498 CNS.
Experiment [9] relates to RXF-631 renal.

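Each compound was tested at five concentrations against cells in 96-well plates for 48 hours. GI50 is the concentration that inhibits growth by half. TGI: concentration producing complete growth inhibition.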

Consider `CN(N=O)C(=O)Nc1ccc(C(=O)O)cc1`, for which the TGI in [1] was over 100 µM.
Take `C[CH2][Ge]([CH2]C)([CH2]C)[O]C(=O)C([O][Ge]([CH2]C)([CH2]C)[CH2]C)c1ccccc1` (stereo not given): the GI50 in experiment [2] is 20.3 µM; in [3] it was 5.84 µM; in [4] it was 26.7 µM; in [5], 16.9 µM. Also, the TGI in [2] is over 100 µM; in experiment [3], 31.6 µM; in experiment [4], 59 µM; in experiment [5], 42.9 µM.
The compound `Oc1c(Cl)cc(CN(Cc2cc(Cl)c(O)c(Cl)c2)C2CCCCC2)cc1Cl` registered a TGI in [1] of over 100 µM.
`O=C([CH-]C(=O)c1ccccc1)c1ccccc1.[CH3-].[CH3-].[CH3-].[Sn+4]`: in experiment [4], the GI50 is 39 µM and the TGI is over 100 µM.
In experiment [1], `C/C(=C1/N=C(c2ccccc2)OC1=O)c1ccccc1` returned a TGI of over 100 µM.
Regarding `CCP(C)(C)=O`, the TGI in experiment [2], in [3], in [6], in experiment [5], in experiment [7] and in [8] was over 100 µM each time.
For `CC1(C)Cc2nnsc2C2=C1C(=O)CCS2`, the TGI in experiment [2], in experiment [3], in experiment [6] and in experiment [4] was over 100 µM throughout.
Consider `C/C=C/C=C/CCCCCCCCCCCCC[C@]1(OC)C=CC(CC(=O)OC)OO1` (stereo not given in full), for which the GI50 in experiment [2] is 20.2 µM; in experiment [9], 24 µM; in experiment [8], 24.2 µM. Also, the TGI in [2] stood at 41.9 µM; in experiment [5], 33 µM; in [9], 56 µM; in [8], 44.6 µM.
With `CCOC(=O)C1=C(c2ccccc2)NC(c2ccccc2)=C(C(=O)OCC)c2c1c(=O)cc[nH]c2=O`, the TGI in experiment [2], in [6], in experiment [5], in experiment [9], in [7] and in experiment [8] was over 100 µM each time.
Turning to `NCCn1cnc2nc(NC(=O)c3ccccc3)[nH]c(=O)c21`, the TGI in [2], in experiment [3], in experiment [4], in experiment [5], in experiment [9] and in experiment [7] was over 100 µM each time.
As to `Cc1ccccc1NC(=O)C(=O)CC(=O)C1CCOC1=O` (stereo not given), the TGI in experiment [2], in experiment [3], in experiment [6], in experiment [4], in [5] and in [7] was over 100 µM in each case. Besides, the TGI in experiment [8] was over 100 µM.
`Cc1cccc(C)c1NC(=O)CCCC(=O)C(C#N)c1ccc(Cl)cc1` (stereo not given): the TGI in experiment [2], in [3], in [6], in experiment [4], in experiment [5] and in experiment [7] was over 100 µM each time.
For `CC1=C/C(O)CC(=O)Cc2nc(co2)C(=O)N2CCC=C2C(=O)OC(C(C)C)C(C)/C=C\C(=O)NC/C=C\1` (stereo not given), the TGI in [1] amounted to 67.9 µM.
On to `COc1ccc(/C(=C\c2cc(OC)c(OC)c(OC)c2)C(=O)O)cc1`, for which the TGI in experiment [2] is over 100 µM; in [3], 67.2 µM; in [6], over 100 µM; in experiment [4] it was over 100 µM; in experiment [5] it was over 100 µM; in experiment [7], over 100 µM. In experiment [8], this compound showed a TGI of 62.3 µM.
`CNC(=O)/C(=C/c1ccc(OC)cc1)c1cc(OC)c(OC)c(OC)c1`: the TGI in experiment [2] is over 100 µM; in experiment [3] it was over 21.5 µM; in [6], over 100 µM; in experiment [4], over 100 µM; in experiment [5], over 100 µM; in experiment [1], 0.71 µM. Moreover, the TGI in [9] was over 100 µM; in [7], over 100 µM; in [8] it was 65.8 µM.
As to `COc1ccc(C(=O)C/C(=N/NC(N)=S)C(=O)Nc2ccccc2)cc1`, the TGI in [2], in experiment [3], in experiment [6], in [4], in [5] and in [7] was over 100 µM in each case. This compound displayed a TGI in [8] of over 100 µM.
Take `CCOC(=O)C1=C(C)N(NC(=O)OC)C2(N)N(NC(=O)OC)C(C)=C(C(=O)OCC)C12C#N` (stereo not given): the TGI in [2], in [3], in experiment [6], in experiment [5] and in experiment [8] was over 100 µM throughout.
`CC(C)C[C@H]1C(=O)N2CCC[C@H]2[C@]2(O)O[C@](NC(=O)[C@@H]3C=C4c5cccc6[nH]c(Br)c(c56)C[C@H]4N(C)C3)(C(C)C)C(=O)N12`: the TGI in experiment [1] was over 100 µM.
In experiment [1], `Cc1cccc2c(N=Nc3ccccc3[N+](=O)[O-])c(O)[nH]c12` had a TGI of over 100 µM.
In the case of `Cc1cc(Cl)ccc1N1C(=O)C(=O)C(c2nc3ccccc3o2)C(=O)C1=O`, the TGI in [2], in [3], in experiment [6], in [4], in [5] and in [7] was over 100 µM each time. The TGI in [8] was over 100 µM.
On to `O=C1c2ccccc2C(=O)c2sc(Nc3ccc(Cl)cc3)nc21`, for which the TGI in experiment [2] amounted to 3.41 µM; in experiment [3] it was 3.63 µM; in experiment [6] it was 3.74 µM; in [4] it was 7.26 µM; in experiment [5] it was 1.56 µM; in [7] it was 8.03 µM. The TGI in experiment [8] is 4.7 µM.
